Laboratory results reported in US20130065757A1, “CHEMICAL COMPOUNDS” (Syngenta Limited, priority 2010, published 2013).

Experiments:
Assay type in all cases: in vivo
[1] = tested on: Alopecurus myosuroides (ALOMY); test: Pre-emergence biological efficacy, glasshouse pot test; settings: 312 h, 1,000 g/ha, evaluated after 13 days, 100=total damage, 0=no damage, read-out: Percentage damage caused to weed species, pre-emergence, ALOMY
Experimental: (§1) Seeds of Alopecurus myosuroides (ALOMY), Setaria faberi (SETFA), Echinochloa crus-galli (ECHCG), Solanum nigrum (SOLNI), Amaranthus retroflexus (AMARE) and Ipomoea hederaceae (IPOHE) were sown in standard soil in pots. After cultivation for one day under controlled conditions in a glasshouse (at 24/16° C., day/night; 14 hours light; 65% humidity), the plants were sprayed with an aqueous spray solution derived from the formulation of the technical active ingredient in acetone/water (50:50) solution containing 0.5% Tween 20 (polyoxyethylene sorbitan monolaurate, CAS RN 9005-64-5) to give a final dose of 1000 g/ha of test compound.
(§2) The test plants were then grown under controlled conditions in the glasshouse (at 24/16° C., day/night; 14 hours light; 65% humidity) and watered twice daily. After 13 days the test was evaluated (100=total damage to plant; 0=no damage to plant).

[2] = tested on: Echinochloa crus-galli (ECHCG); test: as above; settings: 312 h, 1,000 g/ha, evaluated after 13 days, 100=total damage, 0=no damage, read-out: Percentage damage caused to weed species, pre-emergence, ECHCG
Experimental: as §1, §2

[3] = tested on: Ipomoea hederaceae (IPOHE); test: as above; settings: 312 h, 1,000 g/ha, evaluated after 13 days, 100=total damage, 0=no damage, read-out: Percentage damage caused to weed species, pre-emergence, IPOHE
Experimental: as §1, §2

[4] = tested on: Solanum nigrum (SOLNI); test: as above; settings: 312 h, 1,000 g/ha, evaluated after 13 days, 100=total damage, 0=no damage, read-out: Percentage damage caused to weed species, pre-emergence, SOLNI
Experimental: as §1, §2

[5] = tested on: Setaria faberi (SETFA); test: as above; settings: 312 h, 1,000 g/ha, evaluated after 13 days, 100=total damage, 0=no damage, read-out: Percentage damage caused to weed species, pre-emergence, SETFA
Experimental: as §1, §2

[6] = tested on: Amaranthus retroflexus (AMARE); test: as above; settings: 312 h, 1,000 g/ha, evaluated after 13 days, 100=total damage, 0=no damage, read-out: Percentage damage caused to weed species, pre-emergence, AMARE
Experimental: as §1, §2

[7] = tested on: Alopecurus myosuroides (ALOMY); test: Post-emergence biological efficacy, glasshouse pot test; settings: 312 h, 1,000 g/ha, post-emergence (sprayed after 8 days), evaluated after 13 days, 100=total damage, 0=no damage, read-out: Percentage damage caused to weed species, post-emergence, ALOMY
Experimental: as §1, with “8 days” for “one day”
(§3) The test plants were then grown on under controlled conditions in a glasshouse (at 24/16° C., day/night; 14 hours light; 65% humidity) and watered twice daily. After 13 days the test was evaluated (100=total damage to plant; 0=no damage to plant).

[8] = tested on: Echinochloa crus-galli (ECHCG); test: as above; settings: 312 h, 1,000 g/ha, post-emergence (sprayed after 8 days), evaluated after 13 days, 100=total damage, 0=no damage, read-out: Percentage damage caused to weed species, post-emergence, ECHCG
Experimental: as §1, with “8 days” for “one day”
as §3

[9] = tested on: Ipomoea hederaceae (IPOHE); test: as above; settings: 312 h, 1,000 g/ha, post-emergence (sprayed after 8 days), evaluated after 13 days, 100=total damage, 0=no damage, read-out: Percentage damage caused to weed species, post-emergence, IPOHE
Experimental: as §1, with “8 days” for “one day”
as §3

[10] = tested on: Solanum nigrum (SOLNI); test: as above; settings: 312 h, 1,000 g/ha, post-emergence (sprayed after 8 days), evaluated after 13 days, 100=total damage, 0=no damage, read-out: Percentage damage caused to weed species, post-emergence, SOLNI
Experimental: as §1, with “8 days” for “one day”
as §3

[11] = tested on: Setaria faberi (SETFA); test: as above; settings: 312 h, 1,000 g/ha, post-emergence (sprayed after 8 days), evaluated after 13 days, 100=total damage, 0=no damage, read-out: Percentage damage caused to weed species, post-emergence, SETFA
Experimental: as §1, with “8 days” for “one day”
as §3

[12] = tested on: Amaranthus retroflexus (AMARE); test: as above; settings: 312 h, 1,000 g/ha, post-emergence (sprayed after 8 days), evaluated after 13 days, 100=total damage, 0=no damage, read-out: Percentage damage caused to weed species, post-emergence, AMARE
Experimental: as §1, with “8 days” for “one day”
as §3

## C/C=C/c1c(N)cc(Cl)nc1C(=O)OC [2-5 (E isomer), (E)-4-Amino-6-chloro-3-(prop-1-enyl)-pyridine-2-carboxylic acid methyl ester]
[1]
  pest or weed control at 1000 g/ha: 90%
[2]
  pest or weed control at 1000 g/ha: 70%
[3]
  pest or weed control at 1000 g/ha: 100%
[4]
  pest or weed control at 1000 g/ha: 100%
[5]
  pest or weed control at 1000 g/ha: 100%
[6]
  pest or weed control at 1000 g/ha: 90%
[7]
  pest or weed control at 1000 g/ha: 50%
[8]
  pest or weed control at 1000 g/ha: 60%
[9]
  pest or weed control at 1000 g/ha: 70%
[10]
  pest or weed control at 1000 g/ha: 90%
[11]
  pest or weed control at 1000 g/ha: 70%
[12]
  pest or weed control at 1000 g/ha: 100%

## C/C=C\c1c(N)cc(Cl)nc1C(=O)OC [2-5 (Z isomer), (Z)-4-Amino-6-chloro-3-(prop-1-enyl)-pyridine-2-carboxylic acid methyl ester]
[1]
  pest or weed control at 1000 g/ha: 90%
[2]
  pest or weed control at 1000 g/ha: 70%
[3]
  pest or weed control at 1000 g/ha: 90%
[4]
  pest or weed control at 1000 g/ha: 100%
[5]
  pest or weed control at 1000 g/ha: 100%
[6]
  pest or weed control at 1000 g/ha: 100%
[7]
  pest or weed control at 1000 g/ha: 50%
[8]
  pest or weed control at 1000 g/ha: 60%
[9]
  pest or weed control at 1000 g/ha: 50%
[10]
  pest or weed control at 1000 g/ha: 100%
[11]
  pest or weed control at 1000 g/ha: 80%
[12]
  pest or weed control at 1000 g/ha: 100%

## C=Cc1c(C(=O)O)nc(Cl)c(Cl)c1N [Compound 1-20, 4-Amino-5,6-dichloro-3-ethenyl-pyridine-2-carboxylic acid]
[1]
  pest or weed control at 1000 g/ha: 90%
[2]
  pest or weed control at 1000 g/ha: 90%
[3]
  pest or weed control at 1000 g/ha: 100%
[4]
  pest or weed control at 1000 g/ha: 100%
[5]
  pest or weed control at 1000 g/ha: 90%
[6]
  pest or weed control at 1000 g/ha: 100%
[7]
  pest or weed control at 1000 g/ha: 90%
[8]
  pest or weed control at 1000 g/ha: 90%
[9]
  pest or weed control at 1000 g/ha: 100%
[10]
  pest or weed control at 1000 g/ha: 90%
[11]
  pest or weed control at 1000 g/ha: 90%
[12]
  pest or weed control at 1000 g/ha: 100%

## COC(=O)c1nc(Cl)cc(N)c1C [Compound 2-1, 4-amino-6-chloro-3-methyl-pyridine-2-carboxylic acid methyl ester]
[1]
  pest or weed control at 1000 g/ha: 90%
[2]
  pest or weed control at 1000 g/ha: 70%
[3]
  pest or weed control at 1000 g/ha: 80%
[4]
  pest or weed control at 1000 g/ha: 100%
[5]
  pest or weed control at 1000 g/ha: 80%
[6]
  pest or weed control at 1000 g/ha: 100%
[7]
  pest or weed control at 1000 g/ha: 90%
[8]
  pest or weed control at 1000 g/ha: 60%
[9]
  pest or weed control at 1000 g/ha: 50%
[10]
  pest or weed control at 1000 g/ha: 90%
[11]
  pest or weed control at 1000 g/ha: 100%
[12]
  pest or weed control at 1000 g/ha: 100%

## COC(=O)c1nc(Cl)cc(N)c1C(F)(F)F [Compound 2-2, 4-amino-6-chloro-3-trifluoromethyl-pyridine-2-carboxylic acid methyl ester]
[1]
  pest or weed control at 1000 g/ha: 20%
[2]
  pest or weed control at 1000 g/ha: 10%
[3]
  pest or weed control at 1000 g/ha: 90%
[4]
  pest or weed control at 1000 g/ha: 80%
[5]
  pest or weed control at 1000 g/ha: 0%
[6]
  pest or weed control at 1000 g/ha: 80%
[7]
  pest or weed control at 1000 g/ha: 10%
[8]
  pest or weed control at 1000 g/ha: 10%
[9]
  pest or weed control at 1000 g/ha: 70%
[10]
  pest or weed control at 1000 g/ha: 80%
[11]
  pest or weed control at 1000 g/ha: 10%
[12]
  pest or weed control at 1000 g/ha: 80%

## C=Cc1c(N)cc(Cl)nc1C(=O)OC [Compound 2-4, 4-amino-6-chloro-3-ethenyl-pyridine-2-carboxylic acid methyl ester]
[1]
  pest or weed control at 1000 g/ha: 90%
[2]
  pest or weed control at 1000 g/ha: 90%
[3]
  pest or weed control at 1000 g/ha: 100%
[4]
  pest or weed control at 1000 g/ha: 100%
[5]
  pest or weed control at 1000 g/ha: 90%
[6]
  pest or weed control at 1000 g/ha: 100%
[7]
  pest or weed control at 1000 g/ha: 90%
[8]
  pest or weed control at 1000 g/ha: 80%
[9]
  pest or weed control at 1000 g/ha: 80%
[10]
  pest or weed control at 1000 g/ha: 100%
[11]
  pest or weed control at 1000 g/ha: 100%
[12]
  pest or weed control at 1000 g/ha: 100%
